According to patent US20250380697A1, “ISOXAZOLINE DERIVATIVE COMPOUND AND INSECTICIDAL COMPOSITION COMPRISING SAME” (KYUNG NONG CORPORATION, priority 2022, published 2025):

Columns and labels:
Type in all cases: in vivo
[1] = test system: Plutella xylostella; assay: Pesticidal activity against Plutella xylostella, leaf-dipping method; conditions: 48 h, read-out: larvae mortality rate against Plutella xylostella
Experimental: Cabbage (Daiya) leaves were cut into pieces with a diameter of 5.8 cm, dipped in each of the pesticide compositions prepared in Examples (a 5% acetone solution in which each of the compounds of Synthesis Examples (concentration: 100 ppm) was diluted) for 30 seconds, and sufficiently shade-dried. Then, the shade-dried cabbage leaves were placed in a petri dish (8.8 cm in diameter) covered with a filter paper and repeatedly inoculated 3 times with third instar larvae of Plutella xylostella, 10 larvae per inoculation. In particular, Plutella xylostella larvae used were those which were collected in a place near Gyeongju (Korea) in 2000 and bred in a breeding room for multiple generations. Then, the Plutella xylostella larvae were stored under the conditions of 16 hours of light and 8 hours of dark, 25±1° C., and relative humidity of 50-60%, and the number of live Plutella xylostella larvae was counted 48 hours after the inoculation. Thereafter, the larvae mortality rate was calculated by correcting the density after treatment based on the density before treatment, as shown in Equation 1 and Equation 2 below, and converting the same into the corrected mortality rate for untreated (Reference: A method of computing the effectiveness of an insecticide. J. Econ. Entomol. 18:265˜267. Abbott, 1925).

[2] = test system: Spodoptera litura; assay: Pesticidal activity against Spodoptera litura, leaf-dipping method; conditions: 48 h, read-out: mortality rate against Spodoptera litura
Experimental: Cabbage (Daiya) leaves were cut into pieces with a diameter of 5.8 cm, dipped in each of the pesticide compositions prepared in Examples (a 5% acetone solution in which each of the compounds of Synthesis Examples (concentration: 100 ppm) was diluted) for 30 seconds, and sufficiently shade-dried. Then, the shade-dried cabbage leaves were placed in a petri dish (8.8 cm in diameter) covered with a filter paper and repeatedly inoculated 3 times with the second instar larvae of Spodoptera litura, 10 larvae per inoculation. In this case, Spodoptera litura larvae used were those which were purchased from the Bio Utilization Institute (Andong, Korea). Then, the Spodoptera litura larvae were stored under the conditions of 16 hours of light and 8 hours of dark, 25±1° C., and relative humidity of 50-60%, and the number of live Spodoptera litura larvae was counted 48 hours after the inoculation. Thereafter, the larvae mortality rate was calculated in the same manner as in Test Example 1 above.

[3] = test system: Frankliniella occidentalis; assay: Pesticidal activity against Frankliniella occidentalis, spray method; conditions: 48 h, read-out: mortality rate against Frankliniella occidentalis
From the text: A water-soaked filter paper (9.0 cm in diameter) was placed in an insect breeding dish (Lab Guide®) with a diameter of 9.0 cm and a height of 4.0 cm, and then parafilm (width 4.0 cm×height 4.0 cm) was placed thereon. Before treating with a pesticide composition, 10 adult Frankliniella occidentalis were inoculated per petri dish using a No. 4 brush. In this case, Frankliniella occidentalis adults used were those purchased from the Bio Utilization Institute (Andong, Korea). Then, each of the pesticide compositions prepared in Examples (a diluted solution in which each of the compounds of Synthesis Examples (concentration: 100 ppm) was diluted; the solvent=distilled water+acetone 50,000 mg/L+Triton X-100 100 mg/L) was loaded into a 100 mL small sprayer, and sprayed 10-12 times at a distance of 30 cm and a height of 50 cm, and one cotyledons of soybean, which is a host plant, were added one at a time. Then, the Frankliniella occidentalis adults were stored under the conditions of 16 hours of light and 8 hours of darkness, 25±1° C., and relative humidity of 50-60%, and the number of live Frankliniella occidentalis adults was counted 48 hours after the inoculation. Thereafter, the larvae mortality rate was calculated in the same manner as in Test Example 1 above.

Measured: mortality at 100 ppm

Cc1cc(C2=NOC(c3cc(Cl)cc(Cl)c3)(C(F)(F)F)C2)ccc1C(=O)NC(=O)c1cn(C)nc1C(F)(F)F (stereo not drawn) [Synthesis Example 47]
≥ 80%: all assays above

Cc1cc(C2=NOC(c3cc(Cl)cc(Cl)c3)(C(F)(F)F)C2)ccc1C(=O)NC(=O)C1(F)CC1 (stereo not drawn) [Synthesis Example 49]
≥ 80%: all assays above

Cc1cc(C2=NOC(c3cc(Cl)cc(Cl)c3)(C(F)(F)F)C2)ccc1C(=O)NC(=O)C1CC1(F)F (stereo not drawn) [Synthesis Example 50]
≥ 80%: all assays above

Cc1cc(C2=NOC(c3cc(Cl)cc(Cl)c3)(C(F)(F)F)C2)ccc1C(=O)NC(=O)C1CC12CCC2 (stereo not drawn) [Synthesis Example 52]
≥ 80%: all assays above

Cc1cc(C2=NOC(c3cc(Cl)cc(Cl)c3)(C(F)(F)F)C2)ccc1C(=O)NC(=O)C1CC1C1CC1 (stereo not drawn) [Synthesis Example 53]
≥ 80%: all assays above

Cc1cc(C2=NOC(c3cc(Cl)cc(Cl)c3)(C(F)(F)F)C2)ccc1C(=O)NC(=O)CC1CC1 (stereo not drawn) [Synthesis Example 55]
≥ 80%: all assays above

Cc1cc(C(=O)NC(=O)c2ccc(C3=NOC(c4cc(Cl)cc(Cl)c4)(C(F)(F)F)C3)cc2C)c(C)o1 (stereo not drawn) [Synthesis Example 56]
≥ 80%: all assays above

Cc1cc(C(=O)NC(=O)c2ccc(C3=NOC(c4cc(Cl)cc(C(F)(F)F)c4)(C(F)(F)F)C3)cc2C)c(C)o1 (stereo not drawn) [Synthesis Example 57]
≥ 80%: all assays above

Cc1cc(C2=NOC(c3cc(Cl)cc(Cl)c3)(C(F)(F)F)C2)ccc1C(=O)NC(=O)c1ccco1 (stereo not drawn) [Synthesis Example 58]
≥ 80%: all assays above

Cc1cc(C2=NOC(c3cc(Cl)cc(C(F)(F)F)c3)(C(F)(F)F)C2)ccc1C(=O)NC(=O)c1ccco1 (stereo not drawn) [Synthesis Example 59]
≥ 80%: all assays above

Cc1cc(C2=NOC(c3cc(Cl)cc(C(F)(F)F)c3)(C(F)(F)F)C2)ccc1C(=O)NC(=O)C1CCOCC1 (stereo not drawn) [Synthesis Example 65]
≥ 80%: all assays above

Cc1cc(C2=NOC(c3cc(Cl)cc(Cl)c3)(C(F)(F)F)C2)ccc1C(=O)NC(=O)N1CCCCC1 (stereo not drawn) [Synthesis Example 66]
≥ 80%: all assays above

Cc1cc(C2=NOC(c3cc(Cl)cc(C(F)(F)F)c3)(C(F)(F)F)C2)ccc1C(=O)NC(=O)N1CCCCC1 (stereo not drawn) [Synthesis Example 67]
≥ 80%: all assays above

Cc1cc(C2=NOC(c3cc(Cl)cc(Cl)c3)(C(F)(F)F)C2)ccc1C(=O)NC(=O)C1CCCC1 (stereo not drawn) [Synthesis Example 68]
≥ 80%: all assays above

Cc1cc(C2=NOC(c3cc(Cl)cc(C(F)(F)F)c3)(C(F)(F)F)C2)ccc1C(=O)NC(=O)C1CCCC1 (stereo not drawn) [Synthesis Example 69]
≥ 80%: all assays above

CC(C)=CC(=O)NC(=O)c1ccc(C2=NOC(c3cc(Cl)cc(C(F)(F)F)c3)(C(F)(F)F)C2)cc1C (stereo not drawn) [Synthesis Example 70]
≥ 80%: all assays above

C/C=C/C(=O)NC(=O)c1ccc(C2=NOC(c3cc(Cl)cc(C(F)(F)F)c3)(C(F)(F)F)C2)cc1C (stereo not drawn) [Synthesis Example 71]
≥ 80%: all assays above

C/C=C/C=C/C(=O)NC(=O)c1ccc(C2=NOC(c3cc(Cl)cc(C(F)(F)F)c3)(C(F)(F)F)C2)cc1C (stereo not drawn) [Synthesis Example 72]
≥ 80%: all assays above

Cc1cc(C2=NOC(c3cc(Cl)cc(C(F)(F)F)c3)(C(F)(F)F)C2)ccc1C(=O)NC(=O)CC1CC1 (stereo not drawn) [Synthesis Example 75]
≥ 80%: all assays above

Cc1cc(C2=NOC(c3cc(Cl)cc(C(F)(F)F)c3)(C(F)(F)F)C2)ccc1C(=O)NC(=O)c1ccc(C#N)cc1 (stereo not drawn) [Synthesis Example 76]
≥ 80%: all assays above

Cc1cc(C2=NOC(c3cc(Cl)cc(C(F)(F)F)c3)(C(F)(F)F)C2)ccc1C(=O)NC(=O)c1nccs1 (stereo not drawn) [Synthesis Example 78]
≥ 80%: all assays above

Cc1cc(C2=NOC(c3cc(Cl)cc(Cl)c3)(C(F)(F)F)C2)ccc1C(=O)NC(=O)c1nccs1 (stereo not drawn) [Synthesis Example 79]
≥ 80%: all assays above

Cc1cc(C(=O)NC(=O)c2ccc(C3=NOC(c4cc(Cl)cc(Cl)c4)(C(F)(F)F)C3)cc2C)no1 (stereo not drawn) [Synthesis Example 80]
≥ 80%: all assays above

Cc1cc(C2=NOC(c3cc(Cl)cc(Cl)c3)(C(F)(F)F)C2)ccc1C(=O)NC(=O)c1ccno1 (stereo not drawn) [Synthesis Example 81]
≥ 80%: all assays above

Cc1cc(C(=O)NC(=O)c2ccc(C3=NOC(c4cc(Cl)cc(C(F)(F)F)c4)(C(F)(F)F)C3)cc2C)no1 (stereo not drawn) [Synthesis Example 82]
≥ 80%: all assays above

Cc1cc(C2=NOC(c3cc(Cl)cc(C(F)(F)F)c3)(C(F)(F)F)C2)ccc1C(=O)NC(=O)c1ccno1 (stereo not drawn) [Synthesis Example 83]
≥ 80%: all assays above

Cc1cc(C2=NOC(c3cc(Cl)cc(C(F)(F)F)c3)(C(F)(F)F)C2)ccc1C(=O)NC(=O)c1cc(C2CC2)on1 (stereo not drawn) [Synthesis Example 84]
≥ 80%: all assays above

Cc1cc(C2=NOC(c3cc(Cl)cc(C(F)(F)F)c3)(C(F)(F)F)C2)ccc1C(=O)NC(=O)C1CCCO1 (stereo not drawn) [Synthesis Example 85]
≥ 80%: all assays above
